“And” between values parts separate entries of the source, which are not always exact repeats. Equal values may be shown once. Read-outs that look alike come from different tables or passages of the source.
Columns and labels:
[1] = test system: Neuronal cortical cells treated with Aβ1-42; assay: Assay for Aβ neurotoxicity and Aβ neuroprotection (Assay 3(c)); assay type: cell-based, mouse; conditions: 20 uM Aβ1-42, 4 days, MTS
Protocol: Media was then replaced with Neurobasal media (Invitrogen Life Technologies) and B27 supplements (Invitrogen Life Technologies). Cultures were maintained at 37° C. in 5% CO2. Prior to experimentation, the culture medium was replaced with Neurobasal media and B27 minus antioxidants (Invitrogen Life Technologies).
(c) Assay for Aβ Neurotoxicity and Aβ Neuroprotection
Neuronal cortical cells were cultured for five days as per Assay 2. On day six the neurobasal (NB) media (Invitrogen Life Technologies) and B27 supplement (Invitrogen Life Technologies) were replaced with NB media and B27 supplement (no antioxidants). On day six, test compounds were individually added to the neuronal cell cultures:
Aβ was initially dissolved in 20 mM NaOH to a concentration of 1 mM and sonicated for 5 minutes. The peptide was then diluted in H2O and 10×PBS to a final concentration of 200 uM Aβ in 1×PBS. The peptide was again sonicated for 5 minutes and then spun at 14000 rpm for 5 min and transferred to a fresh tube.
The test compounds were dissolved in 100% DMSO to a concentration of 2.5 mM (10 mM if excess compound was weighed out per vial—then diluted to 2.5 mM). […] Test compounds were not added directly to cells, instead they were added to a 48 well ‘Drug Plate’ as comprised below:
The Drug Plate was incubated at 37° C. for 15 mins. 200 ul of each well was added in triplicate to the corresponding cell plate. The cell plate was incubated at 37 C, for 4 days.
On the 4th day after treating the cells the assay is completed by adding MTS to the cells.

[2] = test system: Aβ in extract of tissue from post mortem human AD brain; assay: Human brain amyloid solubilisation assay (Assay 9, BAS); assay type: biochemical
Protocol: Assay 9. Human Brain Amyloid Solubilisation Assay
This assay was performed in order to assess the ability of a test compound to mobilise Aβ from the insoluble to the soluble phase of an extract of tissue from post mortem human AD brain.
Up to 0.5 g of plaque-bearing cortex without meninges was homogenized using a DIAX 900 homogenizer (Heudolph and Co, Kelheim, Germany) or other suitable device for three 30-second periods at full speed in 2 ml of ice-cold phosphate-buffered saline, pH 7.4. To obtain the phosphate-buffered saline-extractable fraction, the homogenate was centrifuged at 100,000×g for 30 min and the supernatant removed. Alternatively, the tissue was freeze dried then pulverised to form a powder which was then weighed out into aliquots for extraction as above. Supernatant, either freeze-dried and resuspended or in unconcentrated form, was dissolved in 200 μl of Tris-Tricine sodium dodecyl sulfate (SDS) sample buffer pH 8.3 containing 8% SDS, 10% 2-mercaptoethanol. Aliquots (10 μl) were then boiled for 10 minutes before SDS-polyacrylamide gel electrophoresis. The insoluble fraction of the cortical samples was obtained by resuspending the initial pelleted sample in 1 ml of phosphate-buffered saline. A 50-μl aliquot of this suspension was then boiled in […] of sample buffer as above.
Tris-Tricine polyacrylamide gel electrophoresis was performed by loading appropriately diluted samples on to 10% to 20% gradient gels (Novex, San Diego, Calif.) followed by transfer on to 0.2-μm nitrocellulose membrane (Bio-Rad, Hercules, Calif.). Aβ was detected by using monoclonal antibody W02, which detects residues 5 through 8, […] (or another suitable antibody) in conjunction with horseradish peroxidase-conjugated rabbit anti-mouse IgG (Dako, Denmark), and visualized by using enhanced chemiluminescence (eg ECL; Amersham Life Science, Buckinghamshire, UK). Each gel included three lanes containing 0.5, 1, and 2 ng of synthetic Aβ40 (Keck Laboratory, Yale University, New Haven, Conn.) as reference standards.
Blot films were scanned by using a suitable imaging system such as the UVP gel documentation system, and densitometry performed using suitable software, eg UVP Labworks. The dynamic range of the film/scanner was determined by using a step tablet (No. 911ST600, Kodak, Rochester N.Y.), a calibrated film exposed by the manufacturer to provided steps of known increasing intensity. The quantifiable range of signal intensity for densitometric analysis of the mono- and dimeric Aβ bands was based on the comparison with a curve obtained by scanning and densitometry of the step tablet.
All samples were analysed at least twice, and gel loadings and dilutions were adjusted to fit within the quantifiable region of the standard curve. […] The insoluble Aβ being comprised of the pelletable fraction derived from the insoluble amyloid plaque from the above cortical samples and the soluble fraction comprising monomeric and/or oligomeric soluble Aβ.

Neuronal cortical cells = assay: Assay for test compound cytoxicity, MTS (Assay 3(d)); assay type: cell-based, mouse
[3] = molecular target: T1, hydrogen peroxide generation by Aβ in the presence of copper (Homo sapiens, UniProt P05067); assay: Fluorometric H2O2 assay (Assay 1); assay type: biochemical; conditions: DCF/HRP, 37 C 60 min, several values in one cell = repeat determinations
T1 construct: The reaction solutions contained Aβ 1-42 at concentrations in the range of 50 nM to 1 μM
In short: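 Aβ1-42 (50 nM–1 μM) with Cu-glycine (2 Cu-Gly : 1 Aβ) and a reductant (dopamine 5 μM or ascorbic acid) was incubated 60 min at 37 °C in PBS pH 7.4 with test compound. H2O2 was detected with 100 μM deacetylated DCF and 0.1 μM HRP by fluorescence against H2O2 standards.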

[4] = solubilising plaques relative to PBS
[5] = BL6J×129sv, mouse, 4 days, 1 uM
[6] = BL6J×129sv, mouse, 4 days, 10 uM
[7] = Aβ 1-42 with Cu-Gly, read-out: Peroxide IC50
[8] = 10 uM test compound, repeated lines = repeat determinations, in %
[9] = Peroxide IC50, Aβ 1-42 with Cu-Gly

T1 sequence (P05067 672-713 limits assumed): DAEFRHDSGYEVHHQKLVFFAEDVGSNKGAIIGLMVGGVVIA

| SMILES | % inhibition Abeta toxicity [1] [%] | BAS Score [2, 4] | Test Compound Cytoxicity 0.1 um (Neuronal cortical cells; BL6J×129sv, mouse, 4 days) [%] | Test Compound Cytoxicity 1 uM (Neuronal cortical cells; [5]) | Test Compound Cytoxicity 10 uM (Neuronal cortical cells; [6]) | Viable 10 uM (Neuronal cortical cells; [6]) | IC50 [3, 7] | BAS Score [2] | Cell viability (% viable cells, MTS) (Neuronal cortical cells; 1 uM, 4 days, in %) | Viable 10 uM (Neuronal cortical cells; [8]) | Cell viability (% viable cells, MTS) (Neuronal cortical cells; 10 uM, 4 days, in %) | Cell viability (% viable cells, MTS) (Neuronal cortical cells; 0.1 um, 4 days) [%] | IC50 [3, 9] [µM] |
| --- | --- | --- | --- | --- | --- | --- | --- | --- | --- | --- | --- | --- | --- |
| CCCCN(c1ccc2cccc(O)c2n1)c1ccc2cccc(O)c2n1 [compound 53] | −75 | + | 96 | 95 | 100 | 95.8 | 0.3 µM |  |  |  |  |  |  |
| COc1cccc(-c2cc(Cl)c3cccnc3c2O)c1 [compound 810] | 11 | + | 100 | 85 | 57 |  | > 10 µM |  |  |  |  |  |  |
| Oc1c(I)cc(Cl)c2cccnc12 [compound 1, clioquinol, reference compound] | 16 | ++ | 78 | 90 | 77 |  | 0.4 to 0.5 µM |  |  |  |  |  |  |
| Cc1cnc(NC(=O)c2ccc3cccc(O)c3n2)s1 [compound 953] | 25 | + | 101 | 85 | 53 | 67.8 | < 4.24 µM and 0.62 µM |  |  |  |  |  |  |
| Oc1ccc(/C=C/c2ccc3cccc(O)c3n2)cc1 [compound 89] | −31 | + | 87 | 92 | 101 | 74.28 | 3 µM |  |  |  |  |  |  |
| CN(c1ccc2cccc(O)c2n1)c1ccc2cccc(O)c2n1 [compound 56] | 17 | + | 108 | 74 | 31 |  | 0.7 µM |  |  |  |  |  |  |
| Nc1ccc2cccc(O)c2n1 [compound 54] | 100 |  |  |  |  |  |  | + | 97 | 99.57 | 61 | 89 | 1 |
| O=C(Nc1nccs1)c1ccc2cccc(O)c2n1 [compound 952] | 13 | + | 98 | 91 | 53 | 99.52 | < 0.81 µM |  |  |  |  |  |  |
| O=S(=O)(O)c1ccc(O)c2ncccc12 [compound 41] | 12 | + | 95 | 100 | 100 | 81.33 |  |  |  |  |  |  | 0.5 |
| Oc1c(Br)cc(-c2ccccc2)c2cccnc12 [compound 806] | 36 | ++ | 99 | 78 | 38 |  | < 1.2 µM |  |  |  |  |  |  |
| Cc1cc(C)c2cccnc2c1O [compound 59] | 22 | + | 89 | 97 | 55 |  |  |  |  |  |  |  |  |
| O=C(CNC(=O)c1cc(O)c2cccc(O)c2n1)NCCc1c[nH]cn1 [compound 987] | 5 | + | 92 | 90 | 87 | 89.03 |  |  |  |  |  |  |  |
| NCc1ccc2cccc(O)c2n1 [compound 968] | 6 | ++ | 103 | 87 | 82 | 97.12 |  |  |  |  |  |  |  |
| Nc1ccccc1NC(=O)c1cc(O)c2cccc(O)c2n1 [compound 986] | 7 | + | 96 | 85 | 60 | 81.73 |  |  |  |  |  |  |  |
| Oc1cccc2cccnc12 [compound 42] | 14 |  |  |  |  |  |  | + | 87 | 97.66 | 79 | 90 |  |
| Oc1ccccc1-c1cc(Cl)c2cccnc2c1O [compound 947] | 3 | + | 100 | 94 | 51 | 70.4 |  |  |  |  |  |  |  |
| CN(CCc1ccccn1)Cc1ccc2cccc(O)c2n1 [compound 990] | 18 | + | 95 | 88 | 57 | 57.45 |  |  |  |  |  |  |  |

Source: patent US9302993B2, “8-hydroxy quinoline derivatives” (PRANA BIOTECHNOLOGY LIMITED, priority 2002, dated 2016)
